These results are taken from PMC9897432 (Proceedings of the National Academy of Sciences of the …, 2022).

The test system of assay [1] is panel of 300 recombinant human kinases. In kind it is biochemical. As to conditions: 0.5 µM, panel of 300 kinases.
The subject of assay [2] is osteoclastogenesis. As to conditions: via off-target actions on M-CSF signaling; cited from earlier work.

As to `COc1ccc(N2C(=O)N(c3c(C)cccc3Cl)Cc3cnc(Nc4ccc(C5CCN(C)CC5)cc4OC)nc32)nc1` [YKL-05-099], the “S(80): portion of kinases tested inhibited >80%” value in assay [1] is listed as 43/300. Moreover, in assay [2], the “osteoclast maturation (in words)” value is reported as “directly blocks osteoclast maturation”.
